Here are results for three compounds from US20200368262A1, “Use of Timosaponin Enzymatically Transformed Product in Preparation of Drugs for Inhibiting Skin Superficial Fungi” (Shanghai University of Traditional Chinese Medicine, priority 2019, published 2020).

Common to all, as to test: Trace liquid-based dilution MIC
Holding throughout (format): cell-based

The subject of test [1] is Cryptococcus neoformans 32609. Particulars: MIC80 (OD 630 nm reduced by 80% or more), 35° C., 72 hours, read-out: In vitro Bacteriostatic Activity (MIC) Cryptococcus neoformans 32609. An excerpt:
(§1) Spherical bacteria such as cryptococcus neoformans and candida albicans were taken, and activated with YEPD culture solution, and then the concentration of the bacteria solution was adjusted with RPM11640 culture solution to 1×10^3˜5 ×10^3 CFU/mL.
(§2) In the present experiment, the minimum inhibitory concentrations of the ethanol extract of rhizoma anemarrhenae and the timosaponin enzymatically transformed product against five common pathogenic fungi were detected by through a trace liquid-based dilution method recommended by the Clinical and Laboratory Standards Institute and the Chinese pharmacopoeia. Fluconazole was used as a positive control drug.
(§3) A specific experimental method is as follows: candida albicans, cryptococcus neoformans, trichophyton rubrum, trichophyton mentagrophytes, and microsporum gypseum were inoculated to a 96-well plate, respectively. The drug with different concentrations was added to the culture, wherein final concentrations of the drug were 64 mg/L, 32 mg/L, 16 mg/L, 8 mg/L, 4 mg/L, 2 mg/L, 1 mg/L, and 0.5 mg/L, respectively. Fungi treated without drug was used as positive control. The candida albicans was cultured at 35° C. for 24 hours while the cryptococcus neoformans was cultured at 35° C. for 72 hours and the trichophyton rubrum, the trichophyton mentagrophytes, and the microsporum gypseum were cultured at 30° C. for 7 days. The OD value of each well under the wavelength of 630 nm was measured using an microplate reader. The lowest drug concentration with an OD value reduced by 80% or more compared with the positive control wells was considered as MIC8o, namely the drug concentration inducing 80% inhibition against fungus growth was inhibited by 80%. When the MIC80 value of the drug was higher than the maximum concentration of 64 mg/L, “>64 mg/L” was recorded.

In test [2] the test system is C. albicans Y0109. The note with it: Candida albicans, MIC80 (OD 630 nm reduced by 80% or more), 35° C., 24 hours, read-out: In vitro Bacteriostatic Activity (MIC) C. albicans Y0109.
Description: as §1, §2, §3

Test [3] concerns C. albicans SC5314. Particulars: Candida albicans, MIC80 (OD 630 nm reduced by 80% or more), 35° C., 24 hours, read-out: In vitro Bacteriostatic Activity (MIC) C. albicans SC5314.
Description: as §1, §2, §3

Test [4] relates to Trichophyton rubrum tia. Particulars: MIC80 (OD 630 nm reduced by 80% or more), 30° C., 7 days; for MIC: Trichophyton rubrum, 168 h, read-out: In vitro Bacteriostatic Activity (MIC) Trichophyton rubrum tia.
Description: (§4) Trichophyton rubrum, microsporum gypseum, and trichophyton mentagrophytes were activated with a Sabouraud glucose agar culture medium, and the concentration of spores was adjusted with an RPM11640 culture solution to 1×10^35×10^3 CFU/mL.
as §2, §3

Test [5] has as its system Microsporum gypseum mzc. The note with it: MIC80 (OD 630 nm reduced by 80% or more), 30° C., 7 days; for MIC: Nannizzia gypsea, 168 h, read-out: In vitro Bacteriostatic Activity (MIC) Microsporum gypseum mzc.
Description: as §4, §2, §3

The test system of test [6] is trichophyton mentagrophytes t5a. Particulars: MIC80 (OD 630 nm reduced by 80% or more), 30° C., 7 days; for MIC: Trichophyton mentagrophytes, T5A, 168 h, read-out: In vitro Bacteriostatic Activity (MIC) trichophyton mentagrophytes t5a.
Description: as §4, §2, §3

The structures appear in SMILES notation. Converted amounts (≈) assume the structure as drawn.

Regarding `C[C@H]1CC[C@@]2(OC1)O[C@H]1C[C@H]3[C@@H]4CC[C@@H]5C[C@@H](O[C@@H]6O[C@H](CO)[C@H](O)[C@H](O)[C@H]6O[C@@H]6O[C@H](CO)[C@@H](O)[C@H](O)[C@H]6O)CC[C@]5(C)[C@H]4CC[C@]3(C)[C@H]1[C@@H]2C` [timosaponin AIII], the MIC in test [1], in test [2], in test [3], in test [4], in test [5] and in test [6] was 4 µg/mL (≈ 5.4 µM) throughout. For the same compound, in test [4] (listed as timosaponin Alll), the “In vitro Bacteriostatic Activity (MIC) Trichophyton rubrum tia” value was found to be 2 µg/mL. Further, the “In vitro Bacteriostatic Activity (MIC) Microsporum gypseum mzc” value in test [5] (listed as timosaponin Alll) was determined as 2 µg/mL. For the same compound, the “In vitro Bacteriostatic Activity (MIC) trichophyton mentagrophytes t5a” value in test [6] (listed as timosaponin Alll) is 2 µg/mL.

In the case of `CC[C@@H]([C@H](C)O)n1ncn(-c2ccc(N3CCN(c4ccc(OC[C@@H]5CO[C@@](Cn6cncn6)(c6ccc(F)cc6F)C5)cc4)CC3)cc2)c1=O` [posaconazole], the MIC in test [1] came out at 0.25 µg/mL (≈ 0.357 µM); in test [2] it was 1 µg/mL (≈ 1.43 µM); in test [3] it was 0.5 µg/mL (≈ 0.713 µM); in test [4] it was 2 µg/mL (≈ 2.85 µM); in test [5], 0.25 µg/mL (≈ 0.357 µM); in test [6], 0.25 µg/mL (≈ 0.357 µM).

For `OC(Cn1cncn1)(Cn1cncn1)c1ccc(F)cc1F` [fluconazole], the minimum inhibitory concentration (MIC) in test [1] was 1 µg/mL (≈ 3.27 µM); in test [2], 1 µg/mL (≈ 3.27 µM); in test [3], 0.5 µg/mL (≈ 1.63 µM); in test [4], 2 µg/mL (≈ 6.53 µM); in test [5], 8 µg/mL (≈ 26.1 µM); in test [6], 32 µg/mL (≈ 104 µM).

Usually MIC stands for the lowest concentration that inhibits growth of the organism.
